Results: patent US20240270821A1, “GIP/GLP1/GCG TRI-RECEPTOR AGONISTS AND USES THEREOF” (priority 2023, published 2024)
Read-outs that look alike come from different tables or passages of the source. Marks after values point to notes of the source that are not given here. Starred links: 1 amine or outer side, 2 acyl side, 3 side chain; linkers in the order of their positions; H or OH if unused. Non-standard residues stand in square brackets, D forms with d. Residues, ends and D or L forms follow the SMILES beside them. Groups on a side chain read outwards from the residue. No end group written: not given here. *: point of attachment. C18 diacid = O=C(O)CCCCCCCCCCCCCCCCC(=O)*; αMePhe(2-F) = C[C@](N)(Cc1ccccc1F)C(=O)O; γGlu = O=C(O)[C@H](CCC(=O)[*:2])N[*:1]; αMe4Pal = C[C@](N)(Cc1ccncc1)C(=O)O; αMeY = C[C@](N)(Cc1ccc(O)cc1)C(=O)O; 4Pal = N[C@@H](Cc1ccncc1)C(=O)O; αMeL = CC(C)C[C@](C)(N)C(=O)O; αMeS = C[C@](N)(CO)C(=O)O; Orn = NCCC[C@H](N)C(=O)O; AEEA = NCCOCCOCC(=O)O; Aib = CC(C)(N)C(=O)O

Key:
hGIPR [1] = target: T1, hGIPR (Homo sapiens, UniProt P48546); test: Functional cAMP activity in the presence of 1% HSA; type: cell-based
T1 sequence (P48546 22-466): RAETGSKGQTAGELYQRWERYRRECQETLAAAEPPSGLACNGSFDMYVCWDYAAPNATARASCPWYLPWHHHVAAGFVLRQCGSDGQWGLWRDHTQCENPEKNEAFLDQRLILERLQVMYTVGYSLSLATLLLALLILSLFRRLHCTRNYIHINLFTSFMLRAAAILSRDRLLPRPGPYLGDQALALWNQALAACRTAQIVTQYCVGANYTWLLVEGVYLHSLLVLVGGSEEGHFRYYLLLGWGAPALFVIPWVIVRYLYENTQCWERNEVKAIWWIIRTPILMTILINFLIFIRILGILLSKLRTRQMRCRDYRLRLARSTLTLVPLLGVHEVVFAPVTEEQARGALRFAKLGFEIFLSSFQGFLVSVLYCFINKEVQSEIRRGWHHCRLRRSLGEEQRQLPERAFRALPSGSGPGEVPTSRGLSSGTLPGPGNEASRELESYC

hGLP-1R [2] = target: T2, hGLP-1R (Homo sapiens, UniProt P43220); test: Functional cAMP activation in the presence of 0.1% casein (no HSA); type: cell-based;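 also: intracellular cAMP rise after 30 min at 37 °C read by HTRF, normalized between buffer only (0%) and maximal control ligand (100%), four-parameter variable-slope fit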
T2 sequence (P43220 24-463): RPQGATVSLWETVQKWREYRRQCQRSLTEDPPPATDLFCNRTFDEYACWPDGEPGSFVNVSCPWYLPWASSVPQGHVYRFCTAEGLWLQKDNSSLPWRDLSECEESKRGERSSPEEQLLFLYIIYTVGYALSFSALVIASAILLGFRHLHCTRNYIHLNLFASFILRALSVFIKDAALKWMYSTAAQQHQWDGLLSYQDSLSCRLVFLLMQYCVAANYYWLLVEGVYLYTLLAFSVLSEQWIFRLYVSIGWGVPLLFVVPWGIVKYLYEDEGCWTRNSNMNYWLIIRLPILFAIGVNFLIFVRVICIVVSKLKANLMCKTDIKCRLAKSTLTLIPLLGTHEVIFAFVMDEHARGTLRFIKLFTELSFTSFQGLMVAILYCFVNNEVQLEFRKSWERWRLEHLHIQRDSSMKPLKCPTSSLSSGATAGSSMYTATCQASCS

human GLP1-R = human GLP1-R (Homo sapiens, UniProt P43220); test: GLP1-R internalization assay in HEK293 cells; type: cell-based; settings: for Internalization % TOP: normalized to maximum concentration of GLP-1 (100%)
Chain of human GLP1-R (P43220 24-463): as above

human GcgR = human GcgR (Homo sapiens, UniProt P47871); test: Functional cAMP activity in the presence of 1% HSA; type: cell-based
Chain of human GcgR (P47871 26-477): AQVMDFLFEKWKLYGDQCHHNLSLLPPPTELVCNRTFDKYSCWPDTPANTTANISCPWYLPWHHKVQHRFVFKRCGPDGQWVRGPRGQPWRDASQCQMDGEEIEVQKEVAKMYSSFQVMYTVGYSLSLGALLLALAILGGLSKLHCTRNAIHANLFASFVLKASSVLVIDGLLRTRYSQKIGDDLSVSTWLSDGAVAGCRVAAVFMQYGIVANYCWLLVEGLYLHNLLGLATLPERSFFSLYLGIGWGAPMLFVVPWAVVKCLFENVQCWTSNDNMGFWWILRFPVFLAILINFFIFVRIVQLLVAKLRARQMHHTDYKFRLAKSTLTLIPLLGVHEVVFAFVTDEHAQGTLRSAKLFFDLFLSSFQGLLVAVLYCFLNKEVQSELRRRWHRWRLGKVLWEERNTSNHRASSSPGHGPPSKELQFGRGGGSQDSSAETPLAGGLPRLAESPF

hGIPR [3] = target: T1, hGIPR; test: Functional cAMP activation in the presence of 0.1% casein (no HSA); type: cell-based;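 also: intracellular cAMP rise after 30 min at 37 °C read by HTRF against a standard curve, scaled between buffer alone (0%) and top control ligand concentration (100%), four-parameter fit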
hGLP-1R [4] = target: T2, hGLP-1R; test: Functional cAMP activity in the presence of 1% HSA; type: cell-based
[5] = In vivo ileum (distal loop) absorption assay; settings: Sprague Dawley, rat, 300 μM peptide with 100 mM C10, rats; for level at time molar at 10 min: read-out: 10 min IL plasma concentration; for level at time molar at 20 min: read-out: 20 min IL plasma concentration; for level at time molar at 40 min: read-out: 40 min IL plasma concentration; for level at time molar at 1 h: 60 min, read-out: 60 min IL plasma concentration
Description: Ileum absorption of the exemplary polypeptides in the presence of C10 in rats is evaluated using a previously reported intestinal closed loop model (Lawrence, S. A.; Blankenship, R.; Brown, […].; Ellis, B.; Thangaraju, A.; Datta-Mannan, A., Influence of FcRn binding properties on the gastrointestinal absorption and exposure profile of Fc molecules. […] Overnight fasted Sprague Dawley rats with body weights between 250-280 grams are anesthetized by inhaling isoflurane and placed on a warm surgical table maintained by circulating water at 37 °C. The surgical area is shaved, and the skin is disinfected with betadine scrub followed by 70% isopropyl alcohol. An approximately 2 cm ventral midline incision is made to expose intestine, and 10 cm of an ileum segment is tied off. The peptides are formulated with 100 mM C10 in Tris buffer (pH 8.0, 50 mM) at a final concentration of 300 μM. The formulations are administered directly into the ileum loop. […] Blood samples are collected into tubes containing […] (5%) and processed to plasma for subsequent analyses. Peptide concentrations in the plasma are determined by LC/MS.

hGcgR = hGcgR (Homo sapiens, UniProt P47871); test: Functional cAMP activation in the presence of 0.1% casein (no HSA); type: cell-based;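 also: intracellular cAMP rise after 30 min at 37 °C, read by HTRF against a cAMP standard curve, scaled from buffer only (0%) to maximal control ligand response (100%)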
Chain of hGcgR (P47871 26-477): as above

in vivo = test: in vivo; design: species or system Sprague Dawley rats; settings: male, Sprague Dawley, rat, 4 mg/kg
Description: The pharmacokinetics of the exemplary analogs are evaluated following a single subcutaneous (SC) administration of 10 nmol/kg (dissolved in 40 mM Tris pH8) or single 4 mg/kg (mixed with 250 mM sodium decanoate/C10 in 40 mM Tris pH8) intrajejunal (IJ) administration to male Sprague Dawley rats. Blood samples are collected over 96 hours following SC administration and 72 hours following IJ dosing, and resulting individual plasma concentrations are used to calculate pharmacokinetic parameters. Peptide plasma (K3 EDTA) concentrations are determined using a qualified LC/MS method that measured the intact mass of the analog. Each peptide and an analog as an internal standard are extracted from rat plasma using methanol. A High Resolution Instrument was used for LC/MS detection.

[6] = Body weight in diet-induced obese C57BL/6 mice; type: in vivo; settings: 10 nmol/kg SC QD, percent of starting weight, DIO mice, mean ± SEM n=5
Procedure, shortened: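 Male C57BL/6 DIO mice (41-50 g, 5 per group, randomized by weight) on calorie-rich diet received subcutaneous doses 30-90 min before dark onset, QD or Q3D for 9-16 days. Body weight measured daily, expressed as percent of starting weight, mean±SEM.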

[7] = read-out: cAMP Rel EC50, hGLP-1R
[8] = in the presence of 0.1% casein (no HSA), geometric mean, read-out: Relative cAMP EC50, hGLP-1R
[9] = in the presence of 0.1% casein (no HSA), geometric mean, read-out: Relative cAMP EC50, hGIPR
[10] = in the presence of 0.1% casein (no HSA), geometric mean, read-out: Relative cAMP EC50, hGcgR

Row | Molecule | EC50 (hGIPR [1]) [nM] | EC50 (hGLP-1R [2]) [nM] | EC50 (human GLP1-R) [nM] | Internalization % TOP (human GLP1-R) [%] | EC50 (human GcgR) [nM] | EC50 (hGIPR [3]) [nM] | EC50 (hGLP-1R [4]) [nM] | AUC [5] [µM·h] | level at time molar at 10 min [5] [nM] | level at time molar at 20 min [5] [nM] | level at time molar at 40 min [5] [nM] | level at time molar at 1 h [5] [nM] | EC50 (hGcgR) [nM] | EC50 (hGIPR [1]; read-out: cAMP Rel EC50, hGIPR) [nM] | EC50 (human GcgR; read-out: cAMP Rel EC50, hGcgR) [nM] | CL/F (in vivo) [mL/min/kg] | half-life (in vivo) [h] | Body weight (%) ([6]; 15 days) | EC50 (hGLP-1R [4]; [7]) [nM] | EC50 (hGLP-1R [2]; [8]) [nM] | also measured
1 | Y[Aib]QGTFTSDFSQ[αMeL]LDKK([AEEA-γGlu-C18 diacid])AQ[αMe4Pal]AFIEYLIE[Aib]GESSGAPPPSGS-NH2 [Example 232] | 24.6 | 0.819 | 44.7 | 45.5 | 482 | 0.102 | 226 | 0.202 | 186 | 235 | 255 | 256 | 2.42 | – | – | – | – | – | – | – | –
2 | Y[Aib]QGT[αMePhe(2-F)]TSD[4Pal][αMeS]I[αMeL]LD[Orn]K([AEEA-γGlu-C18 diacid])AQ[Aib][Orn]FI[dE][αMeY]LIEGGPSSGAPEPSEG-NH2 [Example 429] | – | – | – | – | – | – | – | – | – | – | – | – | – | 1.89 | 138 | 10.7 | 7.8 | 70.20 ± 1.63 % | 12.1 | – | EC50 (hGLP-1R [2]; read-out: Relative cAMP EC50, hGLP-1R): 0.178 nM; EC50 (hGIPR [3]; read-out: Relative cAMP EC50, hGIPR): 0.0142 nM; Body weight (%) ([6]; 9 days): 74.66 ± 3.87 %; EC50 (hGcgR; read-out: Relative cAMP EC50, hGcgR): 1.19 nM
3 | CC[C@H](C)[C@H](NC(=O)[C@H](Cc1ccccc1)NC(=O)[C@H](C)NC(=O)C(C)(C)NC(=O)[C@H](CCC(N)=O)NC(=O)[C@H](C)NC(=O)[C@H](CCCCNC(=O)COCCOCCNC(=O)CC[C@H](NC(=O)CCCCCCCCCCCCCCCCC(=O)O)C(=O)O)NC(=O)[C@H](CCCCN)NC(=O)[C@H](CC(=O)O)NC(=O)[C@H](CC(C)C)NC(=O)[C@](C)(CC(C)C)NC(=O)[C@H](CCC(N)=O)NC(=O)[C@H](CO)NC(=O)[C@H](Cc1ccccc1)NC(=O)[C@H](CC(=O)O)NC(=O)[C@H](CO)NC(=O)[C@@H](NC(=O)[C@H](Cc1ccccc1)NC(=O)[C@@H](NC(=O)CNC(=O)[C@H](CCC(N)=O)NC(=O)C(C)(C)NC(=O)[C@@H](N)Cc1ccc(O)cc1)[C@@H](C)O)[C@@H](C)O)C(=O)N[C@@H](CCC(=O)O)C(=O)N[C@@H](Cc1ccc(O)cc1)C(=O)N[C@@H](CC(C)C)C(=O)N[C@@H](CC(C)C)C(=O)N[C@@H](CCC(=O)O)C(=O)NC(C)(C)C(=O)NCC(=O)N1CCC[C@H]1C(=O)N[C@@H](CO)C(=O)N[C@@H](CO)C(=O)NCC(=O)N[C@@H](C)C(=O)N1CCC[C@H]1C(=O)N1CCC[C@H]1C(=O)N1CCC[C@H]1C(=O)N[C@@H](CO)C(=O)NCC(=O)N[C@@H](CO)C(N)=O [Example 151] | 14.9 | 1.6 | 77.8 | 55 | 1420 | 0.0784 | 384 | 0.0886 | 69 | 95 | 115 | 124 | 3.5 | – | – | – | – | – | – | – | –
4 | CC[C@H](C)[C@H](NC(=O)[C@H](CC(C)C)NC(=O)[C@](C)(Cc1ccc(O)cc1)NC(=O)[C@@H](CCC(=O)O)NC(=O)[C@@H](NC(=O)[C@H](Cc1ccccc1)NC(=O)[C@H](CCCN)NC(=O)C(C)(C)NC(=O)[C@H](CCC(N)=O)NC(=O)[C@H](C)NC(=O)[C@H](CCCCNC(=O)COCCOCCNC(=O)CC[C@H](NC(=O)CCCCCCCCCCCCCCCCC(=O)O)C(=O)O)NC(=O)[C@H](CCCN)NC(=O)[C@H](CC(=O)O)NC(=O)[C@H](CC(C)C)NC(=O)[C@](C)(CC(C)C)NC(=O)[C@@H](NC(=O)[C@](C)(CO)NC(=O)[C@H](Cc1ccncc1)NC(=O)[C@H](CC(=O)O)NC(=O)[C@H](CO)NC(=O)[C@@H](NC(=O)[C@](C)(Cc1ccccc1F)NC(=O)[C@@H](NC(=O)CNC(=O)[C@H](CCC(N)=O)NC(=O)C(C)(C)NC(=O)[C@@H](N)Cc1ccc(O)cc1)[C@@H](C)O)[C@@H](C)O)[C@@H](C)CC)[C@@H](C)CC)C(=O)N[C@@H](CCC(=O)O)C(=O)NCC(=O)NCC(=O)N1CCC[C@H]1C(=O)N[C@@H](CO)C(=O)N[C@@H](CO)C(=O)NCC(=O)N[C@@H](CCC(=O)O)C(=O)N1CCC[C@H]1C(=O)N1CCC[C@H]1C(=O)N1CCC[C@H]1C(=O)N[C@@H](CCC(=O)O)C(N)=O [Example 378] (H-Y[Aib]QGT[αMePhe(2-F)]TSD[4Pal][αMeS]I[αMeL]LD[Orn]K([AEEA-γGlu-C18 diacid])AQ[Aib][Orn]FI[dE][αMeY]LIEGGPSSGEPPPE-NH2) | – | – | – | – | – | – | – | – | – | – | – | – | – | 2.15 | 176 | 3.83 | 8.2 | 68.84 +/− 1.37**** % | 18.8 | 0.251 | EC50 (hGIPR [3]; [9]): 0.0213 nM; EC50 (hGcgR; [10]): 1.45 nM
5 | CC[C@H](C)[C@H](NC(=O)[C@H](Cc1ccccc1)NC(=O)[C@H](CCCN)NC(=O)C(C)(C)NC(=O)[C@H](CCC(N)=O)NC(=O)[C@H](C)NC(=O)[C@H](CCCCNC(=O)COCCOCCNC(=O)CC[C@H](NC(=O)CCCCCCCCCCCCCCCCC(=O)O)C(=O)O)NC(=O)[C@H](CCCN)NC(=O)[C@H](CC(=O)O)NC(=O)[C@H](CC(C)C)NC(=O)[C@](C)(CC(C)C)NC(=O)[C@@H](NC(=O)[C@](C)(CO)NC(=O)[C@H](Cc1ccncc1)NC(=O)[C@H](CC(=O)O)NC(=O)[C@H](CO)NC(=O)[C@@H](NC(=O)[C@](C)(Cc1ccccc1F)NC(=O)[C@@H](NC(=O)CNC(=O)[C@H](CCC(N)=O)NC(=O)C(C)(C)NC(=O)[C@@H](N)Cc1ccc(O)cc1)[C@@H](C)O)[C@@H](C)O)[C@@H](C)CC)C(=O)N[C@H](CCC(=O)O)C(=O)N[C@@](C)(Cc1ccc(O)cc1)C(=O)N[C@@H](CC(C)C)C(=O)N[C@@H](CC(C)C)C(=O)N[C@@H](CCC(=O)O)C(=O)NCC(=O)NCC(=O)N1CCC[C@H]1C(=O)N[C@@H](CO)C(=O)N[C@@H](CO)C(=O)NCC(=O)N[C@@H](CCC(=O)O)C(=O)N1CCC[C@H]1C(=O)N1CCC[C@H]1C(=O)N1CCC[C@H]1C(=O)N[C@@H](CO)C(N)=O [Example 369] (H-Y[Aib]QGT[αMePhe(2-F)]TSD[4Pal][αMeS]I[αMeL]LD[Orn]K([AEEA-γGlu-C18 diacid])AQ[Aib][Orn]FI[dE][αMeY]LLEGGPSSGEPPPS-NH2) | – | – | – | – | – | – | – | – | – | – | – | – | – | 4.58 | 111 | 11.3 | 8.2 | – | 26.8 | 0.301 | EC50 (hGIPR [3]; [9]): 0.0263 nM; Body weight (%) ([6]; 14 days): 52.91 +/− 2.17**** %; EC50 (hGcgR; [10]): 0.873 nM
